Data as given in patent US20210388028A1, “GLYCOPEPTIDE DERIVATIVE COMPOUNDS AND USES THEREOF” (INSMED INCORPORATED, priority 2018, published 2021).

Legend:
[1] = tested on: gram positive pathogens including S. Aureus methicillin-susceptible and resistant isolates; assay: antibacterial activity against gram positive pathogens; assay type: cell-based
[2] = set-up: species or system Sprague Dawley rats; conditions: rat, in vivo, inhaled or intranasal, 10 mg/kg
Procedure: 120 h single dose in vivo PK experiments of nebulized inhaled compounds were performed in healthy male Sprague Dawley rats at target body-weight doses of 10 mg/kg (RV40) or 1.5 mg/kg (TLV, RV104, RV106), using a 12-port nose-only chamber (CH Technologies, Westwood, N.J., USA) equipped with an Aerogen Aeroneb Pro mesh nebulizer. The aerosol was provided to chamber at a flow rate of 6 L/min. Lungs were collected, and drug concentrations measured by HPLC-MS/MS.
Chemical modification of the compound to include an additional moiety at R=x was accomplished to improve reduce the compound's predictive hydrophobicity.

**Q.** With `CCCCCCCCCCNCCN[C@@]1(C)C[C@H](O[C@H]2[C@H](Oc3c4cc5cc3Oc3ccc(cc3Cl)[C@@H](O)[C@@H](NC(=O)[C@@H](CC(C)C)NC)C(=O)N[C@@H](CC(N)=O)C(=O)N[C@H]5C(=O)N[C@H]3C(=O)N[C@H](C(=O)N[C@H](C(=O)O)c5cc(O)cc(O)c5-c5cc3ccc5O)[C@H](O)c3ccc(c(Cl)c3)O4)O[C@H](CO)[C@@H](O)[C@@H]2O)O[C@@H](C)[C@H]1O` [RV40] as the compound, how does the antibacterial activity [1] read?
**A.** potent antibacterial activity

**Q.** What about the “half-life in lung tissue (t1/2)” value [2] of the same compound?
**A.** 12.5 days
